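Interpolation was linear, between the two tested concentrations surrounding the appropriate level; five concentrations were tested over 48 hours in 96-well plates. GI50 is the concentration that inhibits growth by half. TGI marks complete inhibition of growth.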
Assays:
Experiment in all cases: growth of human tumour cells (NCI), 48 h
[1] = system: OVCAR-3 ovarian
[2] = system: MALME-3M melanoma
[3] = system: MOLT-4 leukemia
[4] = system: OVCAR-5 ovarian
[5] = system: SF-268 CNS
[6] = system: MDA-MB-435
[7] = system: HS 578T breast
[8] = system: RPMI-8226 leukemia
[9] = system: HCC-2998 colon
[10] = system: K-562 leukemia

CCCCC1=C(C(=O)N2CCOCC2)C2(OCCO2)C1=O
TGI [1]: 39.7 µM
TGI [2]: 57 µM
TGI [3]: > 100 µM
TGI [4]: 46.8 µM
TGI [5]: 86.7 µM
TGI [6]: 50.8 µM
TGI [7]: > 100 µM

CS(=O)(=O)CSCSSCS(C)(=O)=O
TGI [1]: > 100 µM
TGI [2]: > 100 µM
TGI [3]: > 82.9 µM
TGI [8]: 55.3 µM
TGI [4]: > 93.8 µM
TGI [5]: 77.5 µM
TGI [9]: > 100 µM
TGI [10]: > 95.5 µM

COc1cc(C(=O)Oc2ccc3c(c2)OCO3)cc(OC)c1OC
TGI [1]: > 100 µM
TGI [2]: > 100 µM
TGI [3]: > 100 µM
TGI [8]: > 100 µM
TGI [4]: > 100 µM
TGI [5]: > 100 µM
TGI [9]: > 100 µM
TGI [6]: > 100 µM
TGI [7]: > 100 µM

Cc1cc(C)nc(NS(=O)(=O)c2ccc(Nc3c4ccccc4nc4c(C(=O)N5CCN(CCOS(C)(=O)=O)CC5)cccc34)cc2)n1
TGI [1]: > 100 µM
TGI [2]: > 100 µM
TGI [3]: > 100 µM
TGI [8]: > 100 µM
TGI [4]: > 100 µM
TGI [5]: > 100 µM
TGI [9]: > 100 µM
TGI [10]: > 100 µM

CCOC(=O)C1(C#N)C(c2ccccc2)CC(O)(c2ccc(Cl)cc2)C(C(=O)c2ccc(Cl)cc2)C1c1ccccc1 (stereo not given)
TGI [1]: > 100 µM
TGI [2]: > 100 µM
TGI [3]: > 100 µM
TGI [8]: > 100 µM
TGI [4]: > 100 µM
TGI [5]: > 100 µM
TGI [9]: > 100 µM

CC1(C)OCC2OC3([C@@H]4OC(C)(C)O[C@H]4CO)OC(C)(C)OC3C2O1 (stereo not given in full)
TGI [1]: > 100 µM
TGI [3]: > 100 µM
TGI [8]: > 100 µM
TGI [4]: > 100 µM
TGI [9]: > 100 µM
TGI [10]: > 100 µM
TGI [6]: > 100 µM

O=C(N/N=C(/CCN1CCCC1)CC(c1ccccc1)c1c(O)c2ccccc2oc1=O)c1ccncc1 (stereo not given)
TGI [1]: > 100 µM
TGI [2]: > 100 µM
TGI [8]: > 100 µM
TGI [4]: > 100 µM
TGI [5]: > 100 µM
TGI [9]: > 100 µM
TGI [10]: > 100 µM

O=C(O)c1cccc2cccc(-c3cccc4cccc(C(=O)O)c34)c12
TGI [1]: > 100 µM
TGI [2]: > 100 µM
TGI [4]: > 100 µM
TGI [5]: > 100 µM
TGI [9]: > 100 µM
TGI [10]: > 100 µM
TGI [6]: > 100 µM
TGI [7]: > 100 µM

CC(C)N1CC2CC(CN(C(=O)c3ccccc3)C2)C1
TGI [1]: > 100 µM
TGI [2]: > 100 µM
TGI [3]: > 100 µM
TGI [8]: > 100 µM
TGI [4]: > 100 µM
TGI [5]: > 100 µM
TGI [9]: > 100 µM
TGI [10]: > 100 µM

COC(=O)C1=C(C(=O)OC)SC(=CC#CC=C2SC(C(=O)OC)=C(C(=O)OC)S2)S1
TGI [1]: 17 µM
TGI [2]: 64.1 µM
TGI [3]: > 100 µM
TGI [8]: > 100 µM
TGI [4]: > 100 µM
TGI [5]: > 60.1 µM
TGI [9]: > 100 µM
TGI [10]: > 100 µM

CC(C)C(=O)C(C)(C)CCc1ccccn1
TGI [1]: > 100 µM
TGI [2]: > 100 µM
TGI [8]: > 100 µM
TGI [4]: > 100 µM
TGI [5]: > 100 µM
TGI [9]: > 100 µM
TGI [10]: > 100 µM
TGI [6]: > 100 µM
TGI [7]: > 100 µM

Cc1cc(S(=O)(=O)Nc2n[nH]c(-c3ccccn3)n2)c(S)cc1Cl
TGI [1]: 64.3 µM
TGI [2]: 60.3 µM
TGI [3]: > 100 µM
TGI [8]: > 100 µM
TGI [4]: 45.4 µM
TGI [5]: 88.3 µM
TGI [9]: 30.2 µM
TGI [6]: 70.6 µM
TGI [7]: 86.6 µM

Cc1cc(C)c2c(=O)cc(-c3cccc(F)c3)[nH]c2n1
TGI [1]: 0.318 µM
TGI [2]: > 100 µM
TGI [3]: > 53.5 µM
TGI [8]: > 55.1 µM
TGI [4]: > 100 µM
TGI [5]: > 93.3 µM
TGI [9]: 3.94 µM
TGI [10]: > 32.1 µM
TGI [7]: 3.36 µM

CSC(SC)=C(C(=O)O)P(=O)(O)O
TGI [1]: > 100 µM
TGI [2]: > 100 µM
TGI [3]: > 100 µM
TGI [4]: > 100 µM
TGI [5]: > 100 µM
TGI [9]: > 100 µM
TGI [7]: > 100 µM

COc1cccc2c1C(=O)c1c(O)c3c(c(O)c1C2=O)C[C@H](O)C[C@@H]3OC1CC(N)C(O)C(C)O1 (stereo not given in full)
TGI [1]: 7.34 µM
TGI [2]: 3.57 µM
TGI [3]: 0.144 µM
TGI [8]: 8.8 µM
TGI [4]: 11.8 µM
TGI [5]: 10.6 µM
TGI [10]: 10.1 µM
TGI [6]: 8.05 µM
TGI [7]: 5.97 µM

COC(=O)[C@@H]1CCCCC[C@H]2C(CO)=C(C)C(=O)C12 (stereo not given in full)
TGI [2]: > 100 µM
TGI [3]: > 100 µM
TGI [8]: > 100 µM
TGI [4]: > 100 µM
TGI [5]: > 100 µM
TGI [9]: > 100 µM
TGI [10]: > 100 µM

CCCCOc1ccc(OCCCCCCCCCC[N+](C)(C)C)cc1
TGI [1]: 7.89 µM
TGI [2]: 16 µM
TGI [3]: 3.27 µM
TGI [8]: 2.33 µM
TGI [4]: 17.2 µM
TGI [5]: 13.9 µM
TGI [9]: 6.28 µM
TGI [10]: 15.4 µM

CCc1c(CNc2ccc(C(=O)NC(CC(=O)O)C(=O)O)cc2)ccc2nc(N)nc(N)c12 (stereo not given)
GI50 [1]: 52.8 µM
TGI [1]: > 1000 µM
GI50 [2]: 179 nM
TGI [2]: > 1000 µM
TGI [3]: > 1000 µM
GI50 [8]: 1280 nM
TGI [8]: > 1000 µM
TGI [4]: > 1000 µM
TGI [5]: > 1000 µM
TGI [10]: > 1000 µM
TGI [6]: > 1000 µM
TGI [7]: > 1000 µM

COc1cc(C(c2c(O)c3ccccc3oc2=O)c2c(O)c3ccccc3oc2=O)cc(Br)c1O
TGI [1]: 30.9 µM
TGI [2]: 31 µM
TGI [3]: 64.8 µM
TGI [8]: 80.4 µM
TGI [4]: 39.3 µM
TGI [5]: 30 µM
TGI [10]: > 100 µM
TGI [6]: 51.6 µM
TGI [7]: 51.8 µM

N#C/C(=C/n1c(=S)[nH]c2ccc([N+](=O)[O-])cc21)C(N)=O
TGI [1]: > 100 µM
TGI [2]: > 100 µM
TGI [3]: > 100 µM
TGI [8]: > 100 µM
TGI [4]: > 100 µM
TGI [5]: > 100 µM
TGI [6]: > 100 µM
TGI [7]: > 100 µM

CCC(CO)Nc1nc(NCc2ccccc2)c2ncn(C(C)C)c2n1 (stereo not given)
TGI [1]: 37.9 µM
TGI [2]: 59.3 µM
TGI [8]: > 100 µM
TGI [4]: > 69.1 µM
TGI [5]: 40.4 µM
TGI [9]: 34.7 µM
TGI [10]: > 100 µM
TGI [6]: > 68.1 µM
TGI [7]: 27.3 µM

C=C1N(C=O)C(C)(C)N(O)C1(C)C
TGI [1]: > 100 µM
TGI [2]: > 100 µM
TGI [3]: 84.4 µM
TGI [8]: > 100 µM
TGI [4]: > 100 µM
TGI [5]: > 100 µM
TGI [9]: > 100 µM
TGI [6]: > 100 µM
TGI [7]: > 100 µM

NCCCCNCCCNC(=O)c1nc(-c2nc(CCN)sc2Cl)sc1Cl
TGI [1]: > 100 µM
TGI [2]: > 100 µM
TGI [3]: > 100 µM
TGI [8]: > 100 µM
TGI [4]: > 100 µM
TGI [5]: 25.4 µM
TGI [9]: > 100 µM
TGI [10]: > 100 µM
